Measured values: ChEMBL document CHEMBL1150976, “The selectivity of protein kinase inhibitors: a further update” (Biochem J, 2007)

Tests used:
[1] = target: Homeodomain-interacting protein kinase 3 (Homo sapiens) (UniProt Q9H422); assay: Percentage HIPK3 activity remaining in the presence of 3uM inhibitor
[2] = target: Mitogen-activated protein kinase 11 (Homo sapiens) (UniProt Q15759); assay: Percentage p38beta activity remaining in the presence of 3uM inhibitor
[3] = target: T1, Aurora kinase C (Homo sapiens) (UniProt Q9UQB9); assay: Percentage Aurora C activity remaining in the presence of 3uM inhibitor
T1 sequence (whole entry): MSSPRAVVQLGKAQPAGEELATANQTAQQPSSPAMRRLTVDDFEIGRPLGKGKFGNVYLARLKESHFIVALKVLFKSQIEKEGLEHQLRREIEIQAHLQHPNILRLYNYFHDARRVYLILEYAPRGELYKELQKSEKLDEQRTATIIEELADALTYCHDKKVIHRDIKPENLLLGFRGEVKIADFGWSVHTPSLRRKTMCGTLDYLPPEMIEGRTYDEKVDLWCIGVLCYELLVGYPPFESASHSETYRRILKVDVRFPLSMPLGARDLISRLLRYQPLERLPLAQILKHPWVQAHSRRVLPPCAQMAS

[4] = target: MAP kinase-activated protein kinase 3 (Homo sapiens) (UniProt Q16644); assay: Percentage MAPKAPK3 activity remaining in the presence of 3uM inhibitor
[5] = target: Maternal embryonic leucine zipper kinase (Homo sapiens) (UniProt Q14680); assay: Percentage MELK activity remaining in the presence of 3uM inhibitor
[6] = target: T2, Serine/threonine-protein kinase 3 (Homo sapiens) (UniProt Q13188); assay: Percentage MST2 activity remaining in the presence of 3uM inhibitor
T2 sequence (whole entry): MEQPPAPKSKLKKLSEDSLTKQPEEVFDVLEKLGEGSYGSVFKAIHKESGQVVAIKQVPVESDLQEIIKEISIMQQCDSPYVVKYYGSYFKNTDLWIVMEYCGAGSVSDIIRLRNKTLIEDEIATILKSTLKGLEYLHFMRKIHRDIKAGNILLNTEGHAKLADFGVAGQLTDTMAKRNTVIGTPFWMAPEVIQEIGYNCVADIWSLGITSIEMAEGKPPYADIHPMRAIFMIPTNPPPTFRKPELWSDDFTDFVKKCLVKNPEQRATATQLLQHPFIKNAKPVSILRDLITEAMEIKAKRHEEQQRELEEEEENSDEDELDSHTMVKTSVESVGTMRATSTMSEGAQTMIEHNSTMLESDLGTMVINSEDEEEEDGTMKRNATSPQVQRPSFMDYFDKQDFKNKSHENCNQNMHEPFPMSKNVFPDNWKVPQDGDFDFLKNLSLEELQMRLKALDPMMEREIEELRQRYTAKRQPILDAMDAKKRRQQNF

[7] = target: T3, Tyrosine-protein kinase CSK (Homo sapiens, UniProt P41240); assay: Percentage CSK activity remaining in the presence of 3uM inhibitor
[8] = target: Protein kinase C alpha type (Homo sapiens) (UniProt P17252); assay: Percentage PKCalpha activity remaining in the presence of 3uM inhibitor
[9] = target: Serine/threonine-protein kinase PAK 4 (Homo sapiens, UniProt O96013); assay: Percentage PAK4 activity remaining in the presence of 3uM inhibitor
[10] = target: Serine/threonine-protein kinase Nek6 (Homo sapiens) (UniProt Q9HC98); assay: Percentage NEK6 activity remaining in the presence of 3uM inhibitor
[11] = target: Calcium/calmodulin-dependent protein kinase kinase 2 (Homo sapiens) (UniProt Q96RR4); assay: Percentage CaMKKbeta activity remaining in the presence of 3uM inhibitor; conditions: filed as antagonist
[12] = target: T4, Serine/threonine-protein kinase pim-3 (Homo sapiens, UniProt Q86V86); assay: Percentage PIM3 activity remaining in the presence of 3uM inhibitor
[13] = target: T5, Mitogen-activated protein kinase 14 (Homo sapiens, UniProt Q16539); assay: Percentage p38alpha activity remaining in the presence of 3uM inhibitor
[14] = target: Calcium/calmodulin-dependent protein kinase type 1 (Homo sapiens) (UniProt Q14012); assay: Percentage CaMK1 activity remaining in the presence of 2uM inhibitor
[15] = target: Serine/threonine-protein kinase Chk2 (Homo sapiens) (UniProt O96017); assay: Percentage CHK2 activity remaining in the presence of 2uM inhibitor
[16] = target: T3, Tyrosine-protein kinase CSK; assay: Percentage CSK activity remaining in the presence of 2uM inhibitor
[17] = target: T4, Serine/threonine-protein kinase pim-3; assay: Percentage PIM3 activity remaining in the presence of 2uM inhibitor; conditions: filed as antagonist
[18] = target: cAMP-dependent protein kinase catalytic subunit alpha (Homo sapiens, UniProt P17612); assay: Percentage PKA activity remaining in the presence of 2uM inhibitor
[19] = target: Mitogen-activated protein kinase 1 (Homo sapiens) (UniProt P28482); assay: Percentage ERK2 activity remaining in the presence of 2uM inhibitor
[20] = target: T5, Mitogen-activated protein kinase 14; assay: Percentage p38alpha activity remaining in the presence of 2uM inhibitor
[21] = target: RAC-beta serine/threonine-protein kinase (Homo sapiens) (UniProt P31751); assay: Percentage PKBbeta activity remaining in the presence of 2uM inhibitor
[22] = target: Calcium/calmodulin-dependent protein kinase kinase 2 (Homo sapiens) (UniProt Q96RR4); assay: Percentage CaMKKbeta activity remaining in the presence of 2uM inhibitor
[23] = target: Dual specificity mitogen-activated protein kinase kinase 1 (Homo sapiens) (UniProt Q02750); assay: Percentage MKK1 activity remaining in the presence of 2uM inhibitor
[24] = target: Mitogen-activated protein kinase 3 (Homo sapiens) (UniProt P27361); assay: Percentage ERK1 activity remaining in the presence of 2uM inhibitor
[25] = target: T6, Mitogen-activated protein kinase 12 (Homo sapiens) (UniProt P53778); assay: Percentage p38-gamma activity remaining in the presence of 2uM inhibitor
T6 sequence (whole entry): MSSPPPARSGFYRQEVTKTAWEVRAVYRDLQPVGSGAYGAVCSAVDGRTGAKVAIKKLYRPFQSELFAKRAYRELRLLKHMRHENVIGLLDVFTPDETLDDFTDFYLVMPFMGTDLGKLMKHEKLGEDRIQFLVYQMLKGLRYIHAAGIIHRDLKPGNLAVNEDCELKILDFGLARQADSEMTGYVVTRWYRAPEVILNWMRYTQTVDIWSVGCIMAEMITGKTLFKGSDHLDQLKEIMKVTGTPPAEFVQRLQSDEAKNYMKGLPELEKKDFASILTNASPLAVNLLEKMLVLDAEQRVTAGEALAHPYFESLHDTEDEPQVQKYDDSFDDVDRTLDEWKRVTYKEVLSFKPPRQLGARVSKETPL

[26] = target: MAP kinase-interacting serine/threonine-protein kinase 1 (Homo sapiens) (UniProt Q9BUB5); assay: Percentage MNK1 activity remaining in the presence of 2uM inhibitor
[27] = target: Serine/threonine-protein kinase PLK1 (Homo sapiens, UniProt P53350); assay: Percentage PLK1 activity remaining in the presence of 2uM inhibitor
[28] = target: RAC-beta serine/threonine-protein kinase (Homo sapiens) (UniProt P31751); assay: Percentage PKBbeta activity remaining in the presence of 0.01uM inhibitor

Sequence of Calcium/calmodulin-dependent protein kinase kinase 2 (Homo sapiens) (Q96RR4 2-588 limits assumed): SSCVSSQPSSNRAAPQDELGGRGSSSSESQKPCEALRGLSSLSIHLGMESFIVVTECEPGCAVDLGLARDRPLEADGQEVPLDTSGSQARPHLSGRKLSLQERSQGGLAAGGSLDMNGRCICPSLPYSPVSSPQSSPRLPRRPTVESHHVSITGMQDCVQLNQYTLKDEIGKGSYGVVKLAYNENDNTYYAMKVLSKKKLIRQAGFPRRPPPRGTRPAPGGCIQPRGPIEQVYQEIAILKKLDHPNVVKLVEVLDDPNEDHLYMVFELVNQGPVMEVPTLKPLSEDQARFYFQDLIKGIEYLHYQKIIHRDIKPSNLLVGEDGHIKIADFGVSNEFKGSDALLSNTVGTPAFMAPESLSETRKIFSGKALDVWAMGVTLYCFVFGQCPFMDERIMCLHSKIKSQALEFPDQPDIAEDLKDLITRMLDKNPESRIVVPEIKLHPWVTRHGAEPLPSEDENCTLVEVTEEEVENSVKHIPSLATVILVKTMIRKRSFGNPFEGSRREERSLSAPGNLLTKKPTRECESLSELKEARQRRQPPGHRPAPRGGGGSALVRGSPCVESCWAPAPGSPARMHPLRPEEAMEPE
T5 sequence (Q16539 whole entry): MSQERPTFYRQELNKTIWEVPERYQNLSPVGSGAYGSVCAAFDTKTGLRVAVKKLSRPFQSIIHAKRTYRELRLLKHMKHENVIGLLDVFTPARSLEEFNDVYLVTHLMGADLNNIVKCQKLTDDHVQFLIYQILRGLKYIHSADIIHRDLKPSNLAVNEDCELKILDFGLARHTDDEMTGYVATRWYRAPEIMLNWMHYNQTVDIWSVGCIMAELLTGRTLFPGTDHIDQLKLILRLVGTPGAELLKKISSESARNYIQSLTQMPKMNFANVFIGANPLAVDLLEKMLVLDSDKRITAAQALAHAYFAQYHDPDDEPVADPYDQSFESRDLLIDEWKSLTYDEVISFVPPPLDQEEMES
Sequence of RAC-beta serine/threonine-protein kinase (Homo sapiens) (P31751 whole entry): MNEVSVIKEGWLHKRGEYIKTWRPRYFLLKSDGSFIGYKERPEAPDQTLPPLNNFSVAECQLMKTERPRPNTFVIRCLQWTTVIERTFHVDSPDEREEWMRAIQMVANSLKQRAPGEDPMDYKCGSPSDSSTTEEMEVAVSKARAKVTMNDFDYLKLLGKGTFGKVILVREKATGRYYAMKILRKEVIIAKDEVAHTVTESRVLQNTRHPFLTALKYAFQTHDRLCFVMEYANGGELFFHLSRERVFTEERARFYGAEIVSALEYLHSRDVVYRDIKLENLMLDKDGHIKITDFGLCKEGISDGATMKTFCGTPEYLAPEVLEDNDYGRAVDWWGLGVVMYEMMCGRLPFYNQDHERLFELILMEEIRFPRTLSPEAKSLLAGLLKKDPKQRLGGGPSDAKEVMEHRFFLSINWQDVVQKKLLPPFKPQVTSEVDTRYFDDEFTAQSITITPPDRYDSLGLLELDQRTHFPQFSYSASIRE
T3 sequence (P41240 2-450 limits assumed): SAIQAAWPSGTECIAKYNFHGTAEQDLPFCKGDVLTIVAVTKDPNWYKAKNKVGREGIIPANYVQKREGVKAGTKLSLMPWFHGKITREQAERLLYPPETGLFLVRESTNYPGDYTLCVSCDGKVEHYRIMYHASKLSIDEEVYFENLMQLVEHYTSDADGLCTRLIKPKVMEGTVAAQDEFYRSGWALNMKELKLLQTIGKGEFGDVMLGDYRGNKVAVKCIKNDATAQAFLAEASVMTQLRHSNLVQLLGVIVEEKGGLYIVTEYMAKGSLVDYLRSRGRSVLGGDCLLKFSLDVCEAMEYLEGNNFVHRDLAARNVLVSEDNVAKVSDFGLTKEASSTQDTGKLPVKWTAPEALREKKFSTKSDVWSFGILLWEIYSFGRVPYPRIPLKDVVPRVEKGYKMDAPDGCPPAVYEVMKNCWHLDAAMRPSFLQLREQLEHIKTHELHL
Sequence of Mitogen-activated protein kinase 1 (Homo sapiens) (P28482 whole entry): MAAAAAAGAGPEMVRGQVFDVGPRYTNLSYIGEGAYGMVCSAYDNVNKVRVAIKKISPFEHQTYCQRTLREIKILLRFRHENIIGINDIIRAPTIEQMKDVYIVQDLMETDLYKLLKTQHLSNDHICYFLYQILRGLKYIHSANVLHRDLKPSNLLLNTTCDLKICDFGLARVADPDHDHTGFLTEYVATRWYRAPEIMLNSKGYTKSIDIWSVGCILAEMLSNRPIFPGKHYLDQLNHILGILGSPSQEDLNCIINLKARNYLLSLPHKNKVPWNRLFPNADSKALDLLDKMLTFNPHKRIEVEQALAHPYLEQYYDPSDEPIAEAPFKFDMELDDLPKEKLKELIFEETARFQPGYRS
Sequence of Serine/threonine-protein kinase Chk2 (Homo sapiens) (O96017 whole entry): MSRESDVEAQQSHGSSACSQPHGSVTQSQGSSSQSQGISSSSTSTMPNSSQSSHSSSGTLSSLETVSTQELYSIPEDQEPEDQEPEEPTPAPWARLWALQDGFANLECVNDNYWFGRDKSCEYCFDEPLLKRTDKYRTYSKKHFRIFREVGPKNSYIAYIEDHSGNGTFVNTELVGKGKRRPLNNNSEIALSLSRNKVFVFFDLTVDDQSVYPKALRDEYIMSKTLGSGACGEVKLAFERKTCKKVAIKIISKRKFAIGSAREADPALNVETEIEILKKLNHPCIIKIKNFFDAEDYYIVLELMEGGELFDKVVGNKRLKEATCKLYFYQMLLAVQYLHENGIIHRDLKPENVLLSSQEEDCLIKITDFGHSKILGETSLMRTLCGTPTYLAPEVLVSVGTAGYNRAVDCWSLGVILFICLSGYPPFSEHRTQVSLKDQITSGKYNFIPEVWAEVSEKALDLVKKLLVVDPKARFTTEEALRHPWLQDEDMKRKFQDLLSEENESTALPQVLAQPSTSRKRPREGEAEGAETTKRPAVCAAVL
Sequence of MAP kinase-activated protein kinase 3 (Homo sapiens) (Q16644 whole entry, looked up): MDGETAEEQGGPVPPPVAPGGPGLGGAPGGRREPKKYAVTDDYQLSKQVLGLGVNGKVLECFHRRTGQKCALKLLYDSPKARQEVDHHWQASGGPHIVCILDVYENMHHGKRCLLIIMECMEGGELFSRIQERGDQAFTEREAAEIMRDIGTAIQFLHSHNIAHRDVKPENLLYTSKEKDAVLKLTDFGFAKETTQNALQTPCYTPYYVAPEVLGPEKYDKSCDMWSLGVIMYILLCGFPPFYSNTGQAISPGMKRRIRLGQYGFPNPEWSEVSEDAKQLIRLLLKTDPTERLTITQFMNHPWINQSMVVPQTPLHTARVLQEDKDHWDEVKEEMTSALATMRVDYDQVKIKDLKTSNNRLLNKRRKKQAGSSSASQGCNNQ
Sequence of Mitogen-activated protein kinase 3 (Homo sapiens) (P27361 whole entry): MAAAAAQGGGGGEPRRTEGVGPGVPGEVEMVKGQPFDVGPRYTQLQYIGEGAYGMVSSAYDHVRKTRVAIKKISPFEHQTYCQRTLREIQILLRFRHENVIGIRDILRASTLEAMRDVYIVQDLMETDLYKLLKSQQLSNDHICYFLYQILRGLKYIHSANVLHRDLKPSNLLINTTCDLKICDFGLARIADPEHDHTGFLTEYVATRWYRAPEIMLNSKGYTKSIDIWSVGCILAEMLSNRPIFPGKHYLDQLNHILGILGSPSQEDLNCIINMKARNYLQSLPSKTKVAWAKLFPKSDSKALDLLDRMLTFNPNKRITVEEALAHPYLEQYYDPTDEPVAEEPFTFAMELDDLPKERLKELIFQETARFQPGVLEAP
Sequence of Serine/threonine-protein kinase PLK1 (P53350 whole entry): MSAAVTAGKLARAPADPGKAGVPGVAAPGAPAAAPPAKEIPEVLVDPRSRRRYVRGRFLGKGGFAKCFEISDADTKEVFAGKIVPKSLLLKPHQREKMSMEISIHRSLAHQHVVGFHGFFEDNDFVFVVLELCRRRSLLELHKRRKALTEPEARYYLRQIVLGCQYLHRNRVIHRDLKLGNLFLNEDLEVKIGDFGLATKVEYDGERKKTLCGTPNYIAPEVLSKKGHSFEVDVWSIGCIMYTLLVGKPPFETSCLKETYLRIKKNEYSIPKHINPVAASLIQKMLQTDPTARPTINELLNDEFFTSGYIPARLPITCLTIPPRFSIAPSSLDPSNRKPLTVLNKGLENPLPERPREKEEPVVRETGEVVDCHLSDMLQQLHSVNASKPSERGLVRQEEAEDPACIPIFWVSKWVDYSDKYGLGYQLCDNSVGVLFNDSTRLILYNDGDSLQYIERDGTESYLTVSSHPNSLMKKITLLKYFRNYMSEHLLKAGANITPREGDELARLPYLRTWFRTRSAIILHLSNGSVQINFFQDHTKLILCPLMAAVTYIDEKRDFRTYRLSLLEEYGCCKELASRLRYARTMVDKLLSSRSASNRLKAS
Sequence of Mitogen-activated protein kinase 11 (Homo sapiens) (Q15759 whole entry): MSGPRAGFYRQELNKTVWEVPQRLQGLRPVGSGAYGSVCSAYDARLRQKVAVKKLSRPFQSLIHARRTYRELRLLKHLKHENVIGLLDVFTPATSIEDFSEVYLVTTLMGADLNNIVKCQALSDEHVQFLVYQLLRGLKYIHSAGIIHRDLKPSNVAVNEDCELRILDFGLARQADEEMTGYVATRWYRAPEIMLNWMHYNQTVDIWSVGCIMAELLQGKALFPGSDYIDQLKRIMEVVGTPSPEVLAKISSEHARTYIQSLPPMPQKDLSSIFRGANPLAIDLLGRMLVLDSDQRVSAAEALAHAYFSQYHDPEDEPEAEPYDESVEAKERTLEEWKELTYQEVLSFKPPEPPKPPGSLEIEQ

`Cc1ccc(-c2c(C(=O)CF)n(CCCO)c3ncnc(N)c23)cc1` gave an Activity [1] of 79%, an Activity [2] of 85% and an Activity [3] of 75%. For the same molecule, the Activity [4] was 92%, the Activity [5] was 65% and the Activity [6] was 76%. It also gave an Activity [7] of 55%, an Activity [8] of 85% and an Activity [9] of 91%. It also gave an Activity [10] of 90%, an Activity [11] of 49% and an Activity [12] of 56%. For the same molecule, the Activity [13] was 72%.

Molecule `Cn1cc(C2=C(c3ccc(Cl)cc3Cl)C(=O)NC2=O)c2ccccc21` has an Activity [14] of 96%, an Activity [15] of 93% and an Activity [16] of 88%. For the same molecule, the Activity [17] was 29%, the Activity [18] was 88% and the Activity [19] was 97%. The Activity [20] was 77%, the Activity [21] was 96% and the Activity [22] was 82%. For the same molecule, the Activity [23] was 71%, the Activity [24] was 99% and the Activity [25] was 84%. It also gave an Activity [26] of 85% and an Activity [27] of 62%.

`CN[C@@H]1C[C@H]2O[C@@](C)([C@@H]1OC)n1c3ccccc3c3c4c(c5c6ccccc6n2c5c31)C(=O)N[C@H]4O` (stereo in doubt) showed an Activity [28] of 77%.
